In ChEMBL document CHEMBL4706646, “Synthesis and evaluation of a collection of purine-like C-nucleosides as antikinetoplastid agents” (Eur J Med Chem, 2021):

How the values were obtained:
[1] = Cytotoxicity against mouse primary macrophages assessed as reduction in cell viability; format: cell-based, Macrophage
[2] = tested on: Trypanosoma brucei brucei; test: Antitrypanosomal activity against Trypanosoma brucei brucei; format: functional, organism-based
[3] = tested on: Trypanosoma brucei rhodesiense; test: Antitrypanosomal activity against Trypanosoma brucei rhodesiense; format: functional, organism-based
Leishmania infantum = test: Antileishmanial activity against Leishmania infantum infected in mouse primary macrophages; format: functional, organism-based; conditions: Primary macrophage
Trypanosoma cruzi = test: Antitrypanosomal activity against Trypanosoma cruzi infected in human MRC-5 SV2 cells; format: functional, organism-based
[4] = Cytotoxicity against human MRC-5 SV2 cells assessed as reduction in cell viability; format: cell-based

SMILES | IC50 [2] | IC50 [3] | IC50 (Leishmania infantum) | CC50 [1] | IC50 (Trypanosoma cruzi) | CC50 [4]
OC[C@H]1O[C@@H](c2cnn3c(O)ncnc23)[C@H](O)[C@@H]1O | 17.2 µM | 36.7 µM | 34.2 µM | > 64 µM | 10.1 µM | > 64 µM
Nc1ncnn2c([C@@H]3O[C@H](CO)[C@@H](O)[C@H]3O)cc(-c3ccc(Cl)c(F)c3)c12 | 6.78 µM | 5.98 µM | ≥ 40.3 µM | > 64 µM | 2.45 µM | ≥ 40.3 µM
O=c1[nH]cnn2c([C@@H]3O[C@H](CO)[C@@H](O)[C@H]3O)cnc12 | 0.5 µM | 3.01 µM | 3.17 µM | > 64 µM | 0.6 µM | > 64 µM
O=c1[nH]cnn2c([C@@H]3O[C@H](CO)C[C@H]3O)ccc12 | > 64 µM | 33.8 µM | > 64 µM | > 64 µM | > 64 µM | > 64 µM
O=C(Cn1ccnc1[N+](=O)[O-])NCc1ccccc1 [BENZNIDAZOLE] | – | – | – | – | 2.02 µM | –
O=c1[nH]cnn2c([C@@H]3O[C@H](CO)[C@@H](O)[C@H]3O)ccc12 | 3.53 µM | 7.06 µM | 5.66 µM | > 64 µM | 7.67 µM | 49.4 µM
Nc1ncnn2c([C@@H]3O[C@H](CO)[C@@H](O)[C@H]3O)cc(-c3ccc(Cl)cc3)c12 | 3.89 µM | 3.71 µM | 236 µM | 5 µM | 0.54 µM | 10.8 µM
Nc1ncnc2c([C@@H]3O[C@H](CO)[C@@H](O)[C@H]3O)cn(-c3ccc(Br)cc3)c12 | 41.8 µM | 28.9 µM | ≥ 50.8 µM | > 64 µM | 0.46 µM | > 64 µM
Nc1ncnc2c([C@@H]3O[C@H](CO)[C@@H](O)[C@H]3O)cn(-c3ccc(Cl)cc3)c12 | 26.9 µM | 26.2 µM | > 64 µM | > 64 µM | 0.34 µM | > 64 µM
Nc1ncnc2c([C@@H]3O[C@H](CO)[C@@H](O)[C@H]3O)cnn12 | 24.8 µM | 33.8 µM | 21.9 µM | > 64 µM | 3.81 µM | 9.32 µM
Nc1nccn2c([C@@H]3O[C@H](CO)C[C@H]3O)cnc12 | > 64 µM | 55.7 µM | > 64 µM | > 64 µM | > 64 µM | > 64 µM
Nc1ncnn2c([C@@H]3O[C@H](CO)[C@@H](O)[C@H]3O)cnc12 | < 0.25 µM | 2 µM | 5.15 µM | 32 µM | 0.62 µM | 1.41 µM
CCCCCCCCCCCCCCCCOP(=O)([O-])OCC[N+](C)(C)C [MILTEFOSINE] | – | – | 7.47 µM | – | – | –
Nc1ncnc2c([C@@H]3O[C@H](CO)[C@@H](O)[C@H]3O)cn(-c3ccc(Cl)c(F)c3)c12 | 40.3 µM | 29 µM | > 64 µM | > 64 µM | 1.04 µM | > 64 µM
O=c1[nH]cnn2c([C@@H]3O[C@H](CO)[C@@H](O)[C@H]3O)cc(Br)c12 | 30.9 µM | 20 µM | > 64 µM | > 64 µM | > 64 µM | > 64 µM

More lines, main results first:

IC50 [2] | IC50 [3] | IC50 (Leishmania infantum) | SMILES | CC50 [1] | IC50 (Trypanosoma cruzi) | CC50 [4]
10.3 µM | 1.77 µM | > 64 µM | N#C[C@]1(c2ccc3c(N)ncnn23)O[C@H](CO)[C@@H](O)[C@H]1O | > 64 µM | > 64 µM | > 64 µM
3.53 µM | 1.65 µM | 23.3 µM | Nc1ncnn2c([C@@H]3O[C@H](CO)C[C@H]3O)cc(-c3ccc(Cl)cc3)c12 | 24 µM | 0.23 µM | ≥ 22.3 µM
8.91 µM | 0.58 µM | > 64 µM | N#C[C@@]1(c2ccc3c(N)ncnn23)O[C@H](CO)[C@@H](O)[C@H]1O [GS-441524] | > 64 µM | > 64 µM | > 64 µM
13 µM | 1.58 µM | 32.5 µM | N#C[C@@]1(c2cc(Br)c3c(N)ncnn23)O[C@H](CO)[C@@H](O)[C@H]1O | 32 µM | 39.3 µM | 11 µM
– | 0.04 µM | – | Cc1ccc(C(=O)Nc2ccc(S(=O)(=O)O)c3cc(S(=O)(=O)O)cc(S(=O)(=O)O)c23)cc1NC(=O)c1cccc(NC(=O)Nc2cccc(C(=O)Nc3cc(C(=O)Nc4ccc(S(=O)(=O)O)c5cc(S(=O)(=O)O)cc(S(=O)(=O)O)c45)ccc3C)c2)c1 [SURAMIN] | – | – | –
> 64 µM | 0.81 µM | > 64 µM | Nc1nccn2c([C@@H]3O[C@H](CO)[C@@H](O)[C@H]3O)cnc12 | > 64 µM | > 64 µM | > 64 µM
1.69 µM | 0.14 µM | 1.13 µM | Nc1ncnn2c([C@@H]3O[C@H](CO)[C@@H](O)[C@H]3O)cc(Br)c12 | 2 µM | 0.78 µM | ≥ 11.8 µM
< 0.25 µM | < 0.25 µM | < 0.25 µM | Nc1ncnn2c([C@@H]3O[C@H](CO)[C@@H](O)[C@H]3O)ccc12 | < 0.25 µM | < 0.25 µM | < 0.25 µM
